Source: patent publication US12492173B2, “Herbicidal substituted N-tetrazolyl aryl carboxamides” (Bayer Aktiengesellschaft, priority 2019, dated 2025)

Tests used:
Assay type in all cases: in vivo
[1] = tested on: Lolium rigidum; test: Pre-emergence herbicidal action, LOLRI; conditions: dosage 320 g/ha, scored visually after 3 weeks vs untreated controls (100% = plants have died)
Text: 1. Pre-Emergence Herbicidal Action Against Harmful Plants Seeds of monocotyledonous and dicotyledonous weed plants and crop plants are laid out in sandy loam soil in wood-fiber pots and covered with soil. The compounds of the invention, formulated in the form of wettable powders (WP) or as emulsion concentrates (EC), are then applied to the surface of the covering soil in the form of an aqueous suspension or emulsion at a water application rate equating to 600 to 800 l/ha, with addition of 0.2% wetting agent. After the treatment, the pots are placed in a greenhouse and kept under good growth conditions for the trial plants. The damage to the test plants is scored visually after a test period of 3 weeks by comparison with untreated controls (herbicidal activity in percent (%): 100% activity=the plants have died, 0% activity=like control plants). […] The tables below illustrate, in an exemplary manner, the […] herbicidal action of the compounds according to the invention, the herbicidal activity being stated in percent. [table] In the experiments that follow, herbicidal action of numerous inventive compounds and the known compounds that are structurally closest from D1 (WO 2012/028579 A1) and D2 (WO 2018/202535 A1) were compared under the above-specified conditions by the pre-emergence and post-emergence method. The example numbers given in the tables relate to the compounds disclosed in the respective documents. In addition to the compounds disclosed in D1 and D2, the following compounds V-1 to V-14 that are encompassed by D1 or D2 but are not compounds specified therein were used in the comparative experiments: • V-1: 2-(methylsulfanyl)-3-(methylsulfinyl)-N-(1-methyl-1H-tetrazol-5-yl)-4-(trifluoromethyl)benzamide • V-2: 2-(methylsulfanyl)-3-(methylsulfonyl)-N-(1-methyl-1H-tetrazol-5-yl)-4-(trifluoromethyl)benzamide • V-3: 2,3-bis(ethylsulfanyl)-N-(1-methyl-1H-tetrazol-5-yl)-4-(trifluoromethyl)benzamide • V-4: 2-chloro-3-(ethylsulfanyl)-N-(1-methyl-1H-tetrazol-5-yl)-4-(trifluoromethyl)benzamide • V-5: 2-chloro-4-iodo-3-(methylsulfanyl)-N-(1-methyl-1H-tetrazol-5-yl)benzamide • V-6: 2-chloro-4-iodo-3-(methylsulfinyl)-N-(1-methyl-1H-tetrazol-5-yl)benzamide • V-7: 2-chloro-4-iodo-3-(methylsulfonyl)-N-(1-methyl-1H-tetrazol-5-yl)benzamide • V-8: 2-bromo-3-(methylsulfanyl)-N-(1-methyl-1H-tetrazol-5-yl)-4-(trifluoromethyl)benzamide • V-9: 2-bromo-3-(methylsulfinyl)-N-(1-methyl-1H-tetrazol-5-yl)-4-(trifluoromethyl)benzamide • V-10: 2-bromo-3-(methylsulfonyl)-N-(1-methyl-1H-tetrazol-5-yl)-4-(trifluoromethyl)benzamide • V-11: 2-bromo-3-(ethylsulfanyl)-N-(1-methyl-1H-tetrazol-5-yl)-4-(trifluoromethyl)benzamide • V-12: 2-bromo-3-(ethylsulfinyl)-N-(1-methyl-1H-tetrazol-5-yl)-4-(trifluoromethyl)benzamide • V-13: 2-bromo-3-(ethylsulfonyl)-N-(1-methyl-1-1H-tetrazol-5-yl)-4-(trifluoromethyl)benzamide • V-14: 2-cyclopropyl-3-(ethylsulfanyl)-N-(1-methyl-1H-tetrazol-5-yl)-4-(trifluoromethyl)benzamide Herbicidal Pre-Emergence Action: […]

[2] = tested on: Alopecurus myosuroides; test: Pre-emergence herbicidal action, ALOMY; design: key: % activity: 100 = plants have died, 0 = like control plants; conditions: comparative experiment, 20 g of a.i./ha
Outline: (§1)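 Herbicidal activity is expressed in percent, scored by eye after a 3-week greenhouse period, with 0% matching untreated plants and 100% meaning death. Compounds, as wettable powders or emulsion concentrates, are applied pre-emergence to the covering soil.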

[3] = tested on: Hordeum murinum; test: Post-emergence herbicidal action, HORMU; design: key: % herbicidal action: 100 = plants died, 0 = like control; conditions: Dosage 80 g/ha
Procedure: [table] 2. Post-Emergence Herbicidal Action Against Harmful Plants Seeds of monocotyledonous and dicotyledonous weed and crop plants are laid out in sandy loam soil in wood-fiber pots, covered with soil and cultivated in a greenhouse under good growth conditions. 2 to 3 weeks after sowing, the test plants are treated at the one-leaf stage. The compounds of the invention, formulated in the form of wettable powders (WP) or as emulsion concentrates (EC), are then sprayed onto the green parts of the plants in the form of an aqueous suspension or emulsion at a water application rate equating to 600 to 800 l/ha, with addition of 0.2% wetting agent. After the test plants have been left to stand in the greenhouse under optimal growth conditions for about 3 weeks, the action of the preparations is assessed visually in comparison to untreated controls (herbicidal action in percent (%): 100% activity=the plants have died, 0% activity=like control plants). […] The tables below illustrate, in an exemplary manner, the post-emergence herbicidal action of the compounds according to the invention, the herbicidal activity being stated in percent. In the experiments that follow, herbicidal action of numerous inventive compounds and the known compounds that are structurally closest from D1 (WO 2012/028579 A1) and D2 (WO 2018/202535 A1) were compared under the above-specified conditions by the pre-emergence and post-emergence method. The example numbers given in the tables relate to the compounds disclosed in the respective documents. In addition to the compounds disclosed in D1 and D2, the following compounds V-1 to V-14 that are encompassed by D1 or D2 but are not compounds specified therein were used in the comparative experiments: • V-1: 2-(methylsulfanyl)-3-(methylsulfinyl)-N-(1-methyl-1H-tetrazol-5-yl)-4-(trifluoromethyl)benzamide • V-2: 2-(methylsulfanyl)-3-(methylsulfonyl)-N-(1-methyl-1H-tetrazol-5-yl)-4-(trifluoromethyl)benzamide • V-3: 2,3-bis(ethylsulfanyl)-N-(1-methyl-1H-tetrazol-5-yl)-4-(trifluoromethyl)benzamide • V-4: 2-chloro-3-(ethylsulfanyl)-N-(1-methyl-1H-tetrazol-5-yl)-4-(trifluoromethyl)benzamide • V-5: 2-chloro-4-iodo-3-(methylsulfanyl)-N-(1-methyl-1H-tetrazol-5-yl)benzamide • V-6: 2-chloro-4-iodo-3-(methylsulfinyl)-N-(1-methyl-1H-tetrazol-5-yl)benzamide • V-7: 2-chloro-4-iodo-3-(methylsulfonyl)-N-(1-methyl-1H-tetrazol-5-yl)benzamide • V-8: 2-bromo-3-(methylsulfanyl)-N-(1-methyl-1H-tetrazol-5-yl)-4-(trifluoromethyl)benzamide • V-9: 2-bromo-3-(methylsulfinyl)-N-(1-methyl-1H-tetrazol-5-yl)-4-(trifluoromethyl)benzamide • V-10: 2-bromo-3-(methylsulfonyl)-N-(1-methyl-1H-tetrazol-5-yl)-4-(trifluoromethyl)benzamide • V-11: 2-bromo-3-(ethylsulfanyl)-N-(1-methyl-1H-tetrazol-5-yl)-4-(trifluoromethyl)benzamide • V-12: 2-bromo-3-(ethylsulfinyl)-N-(1-methyl-1H-tetrazol-5-yl)-4-(trifluoromethyl)benzamide • V-13: 2-bromo-3-(ethylsulfonyl)-N-(1-methyl-1-1H-tetrazol-5-yl)-4-(trifluoromethyl)benzamide • V-14: 2-cyclopropyl-3-(ethylsulfanyl)-N-(1-methyl-1H-tetrazol-5-yl)-4-(trifluoromethyl)benzamide Herbicidal Pre-Emergence Action: […]

[4] = tested on: Hordeum murinum; test: Pre-emergence herbicidal action, HORMU; conditions: dosage 320 g/ha, scored visually after 3 weeks vs untreated controls (100% = plants have died)
Outline: as §1

SMILES	herbicidal activity LOLRI [1] [%]	Herbicidal action against ALOMY [2]	herbicidal action HORMU [3]	herbicidal activity HORMU [4] [%]
C=CCSCc1c(C(F)(F)F)ccc(C(=O)Nc2nnnn2C)c1Cl [Example 1-308]	90	–	–	–
Cn1nnnc1NC(=O)c1ccc(C(F)(F)F)c(C[S+](C)[O-])c1Br (stereo not shown) [Example 1-381]	–	50	–	–
Cn1nnnc1NC(=O)c1ccc(C(F)(F)F)c(CS(C)(=O)=O)c1Br [Example 1-382, 2-bromo-3-[(methylsulfonyl)methyl]-N-(1-methyl-1H-tetrazol-5-yl)-4-(trifluoromethyl)benzamide]	–	30	–	–
CCn1nnnc1NC(=O)c1ccc(C(F)(F)F)c(CS(C)(=O)=O)c1SC [Example 2-163]	–	–	80	–
CCCn1nnnc1NC(=O)c1ccc(C(F)F)c(C[S+]([O-])CC)c1Cl (stereo not shown) [Example 3-324]	100	–	80	100
